We go through one compound from US8791092B2 (priority 2009, dated 2014).

Data set [1] addresses T1, Aβ42 (Homo sapiens, UniProt P05067). As to the kind of experiment: Quiescent Aβ42 β-sheet formation measured by thioflavin T (ThT) fluorescence. As to conditions: 25 μM Aβ42, 20 μM tweezers, substoichiometric.
The test system of data set [2] is differentiated PC-12 cells. In words: Effect of tweezers alone on cell viability, MTT assay. As to conditions: 50 μM TW1. It is filed as cell-based. Here is the method: (§1) Cell viability relative to media control was measured using the MTT assay.
(§2) Freshly prepared 10 μM Aβ40 or Aβ42 were mixed with each of the three tweezers derivatives and added to differentiated PC-12 cells. Cell viability relative to media control was measured using the MTT assay.
(§3) 7. […] Based on the capability of the tweezers to inhibit Aβ aggregation, disaggregate pre-formed Aβ fibrils, and stabilize putatively non-toxic Aβ oligomers, we predicted that they should inhibit Aβ-induced toxicity. […] Next, we evaluated the dose-dependence of the effect of each of the three tweezers derivatives on Aβ40 and Aβ42 using the same cell culture system. Aβ42 was used at 10 μM as in the previous experiment, whereas the less neurotoxic Aβ40 was used at 25 μM. […] PC-12 cells were differentiated for 48 hours prior to the start of the assay. […] Based on the data extant, prediction of inhibitory activity based on tweezers structure alone is impossible. Thus, using molecular tweezers as inhibitors of Aβ toxicity is by no means trivial.
(In general: Tetrazolium dyes change colour on reduction, which living cells bring about.)

A further data set addresses β2-microglobulin (β2m) (Homo sapiens, UniProt P61769). As to the kind of experiment: Fibrillogenesis of β2-microglobulin (ThT fluorescence and EM). It is filed as biochemical. As to conditions: 1:10 or 1:20 concentration ratio.
In data set [3] the target is T2, islet amyloid polypeptide (IAPP) (Homo sapiens, UniProt P10997).
T2 sequence (P10997 34-70 limits assumed): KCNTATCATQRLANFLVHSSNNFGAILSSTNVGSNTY
In words: Fibrillogenesis of islet amyloid polypeptide (ThT fluorescence and EM). It is filed as biochemical. As to conditions: 1:10 or 1:20 concentration ratio.

Data set [4] has as its target T3, Aβ40 (Homo sapiens, UniProt P05067). It is filed as binding. Details: A) 25 μM Aβ40. As to conditions: 1:1 Aβ40:TW1 concentration ratio.
For data set [5], the system named is rat primary hippocampal neurons. As to the kind of experiment: Aβ42-induced decrease in dendritic spine density. The data set is classed as cell-based. As to the method:
Neurons were visualized by staining F-actin with phalloidin (red) and nuclei were stained with DAPI (blue). A) Untreated cells show abundant dendritic spines (rough appearance). B and C) Show duplicate fields from the same experiment. Cells incubated with 500 nM Aβ42 oligomers show essential absence of spines (smooth neurites).
(§4) 8. […] An early neurotoxic event induced by Aβ oligomers and believed to be a predominant pathologic mechanism causing amnestic mild cognitive impairment (MCIa) and early AD^(1) is disruption of synapse morphology and communication (Shankar et al. (2007) J. Neurosci. 27: 2866-2875). […] Aβ42 oligomers caused essentially complete depletion of dendritic spines (FIG. 14, panels B, C) compared to control (FIG. 14, panel A). […] This effect endured after the 15-min washing period.

Data set [6] addresses T3, Aβ40. Conditions: 20 μM Aβ40, 10-fold excess TW1; for over a month.
Data set [7] deals with T1, Aβ42. As to the kind of experiment: Aβ42 aggregation measured by dynamic light scattering (DLS). It is filed as biochemical. The arrangement: C) 30 μM Aβ42.
Data set [8] addresses T1, Aβ42. In words: β-sheet formation by Aβ42 under agitation (shaking). The data set is classed as biochemical. Details: C) 30 μM Aβ42. Conditions: 10 μM Aβ42; 1:10 Aβ:tweezers concentration ratio; shaken at 200 rpm. As to the method:
Aβ42 was used at 10 μM. […] The samples were shaken at 200 rpm.

The target of the next data set is T4, calcitonin (Homo sapiens, UniProt P01258).
T4 sequence (P01258 85-116 limits assumed): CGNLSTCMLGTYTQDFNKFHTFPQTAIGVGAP
In words: Fibrillogenesis of calcitonin (ThT fluorescence and EM). Conditions: 1:10 or 1:20 concentration ratio. It is filed as biochemical.

Data set [9] addresses T1, Aβ42. As to the kind of experiment: Quiescent Aβ42 fibril formation measured by electron microscopy (EM). It is filed as biochemical. Details: C) 30 μM Aβ42. As to conditions: 25 μM Aβ42 + 20 μM TW1, days 3, 5, 10. As to the method:
8 μL of each solution were applied to glow-discharged, carbon-coated Formvar grids and incubated for 20 min. The samples were fixed by incubating with 5 μL of 2.5% glutaraldehyde for 5 min, and stained with 5 μL of 1% uranyl acetate for 5 min. The stained samples were examined using a JEOL CX100 electron microscope. A-C) 25 μM Aβ42. […] A, D) day 3. B, E) day 5. C, F) day 10.
5. TW1 attenuates Aβ fibril formation as measured by electron microscopy (EM).

For data set [10], the system named is Aβ40-induced toxicity in differentiated PC-12 cells. As to the kind of experiment: Aβ40-induced toxicity, MTT assay in differentiated PC-12 cells. The data set is classed as cell-based. Here is the method: as §2, §3
The test system of data set [11] is primary mouse hippocampal neurons. In words: Aβ42-mediated inhibition of miniature excitatory postsynaptic currents (mEPSCs). It is filed as cell-based. As to conditions: 3 μM Aβ42, 1:10 Aβ42:TW1. As to the method: Cells were perfused with vehicle for 5 min to establish baseline, and then with peptide or peptide:tweezers solutions for additional 20 minutes, and allowed to recover in vehicle solution for 15 minutes.
as §4

Data set [12] relates to Aβ42-induced toxicity in differentiated PC-12 cells. As to the kind of experiment: Aβ42-induced toxicity, MTT assay in differentiated PC-12 cells. The data set is classed as cell-based. Here is the method: as §1, §2, §3
The next data set concerns the target insulin (Homo sapiens, UniProt P01308). As to the kind of experiment: Fibrillogenesis of insulin (ThT fluorescence and EM). The data set is classed as biochemical. Conditions: 1:10 or 1:20 concentration ratio.

Entries after “also recorded” stand apart in the source; their conditions may differ.

T1 sequence (P05067 672-713 limits assumed): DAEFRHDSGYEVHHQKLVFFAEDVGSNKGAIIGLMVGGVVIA
T3 sequence (P05067 672-711 limits assumed): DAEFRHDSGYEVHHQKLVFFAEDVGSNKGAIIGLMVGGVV
Sequence of β2-microglobulin (β2m) (P61769 21-119): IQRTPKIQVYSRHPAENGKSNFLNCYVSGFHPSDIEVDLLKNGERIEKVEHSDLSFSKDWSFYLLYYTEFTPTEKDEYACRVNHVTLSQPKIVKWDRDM
Sequence of insulin (P01308 25-54 limits assumed, species assumed): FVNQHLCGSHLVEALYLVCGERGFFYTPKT
Sequence of insulin (P01308 90-110 partner limits assumed, species assumed): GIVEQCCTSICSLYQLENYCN

`O=P(O)(O)Oc1c2c(c(OP(=O)(O)O)c3c1C1C[C@H]3c3cc4c(cc31)C1C[C@H]4c3ccccc31)[C@@H]1CC2c2cc3c(cc21)[C@@H]1CC3c2ccccc21` [TW1]: the “inhibition of β-sheet formation by Aβ42 (ThT)” value against Aβ42 [1] is “inhibit β-sheet formation”. In [2], the “toxicity of tweezers alone (in words)” value is “nontoxic”. Further, the “inhibition of β2m fibrillogenesis” value on β2-microglobulin (β2m) is “inhibited the fibrillogenesis; also recorded: inhibited the aggregation”. Moreover, the “inhibition of IAPP fibrillogenesis” value in data set [3] is reported as “inhibited the fibrillogenesis; also recorded: inhibited the aggregation”. At Aβ40 [4], the “binding site of TW1 in the 1:1 complex (ECD)” value is reported as “within the Aβ(14-23) region, most likely at Lys16; also recorded: Lys16”. In addition, the “rescue of Aβ42-induced depletion of dendritic spines, TW1 present during oligomer preparation” value in data set [5] (500 nM Aβ42 oligomerized in presence of 250 nM TW1, 48 h) is “rescued this toxic effect to baseline level; also recorded: essentially complete rescue”. Further, in [5] (500 nM pre-formed Aβ42 oligomers, 5 μM TW1 (10-fold excess), 48 h), the “rescue of dendritic spines, TW1 added with pre-formed Aβ42 oligomers” value is listed as “moderate rescue effect”. In addition, in [5] (5 μM TW1), the “effect of TW1 alone on dendritic spine morphology” value is on record as “no effect”. On Aβ40 [6], the “Aβ40 particle growth (DLS)” value is listed as “no particle growth was observed”. Further, the “Aβ42 particle growth (DLS)” value is “no particle growth was observed” at Aβ42 [7] (20 μM Aβ42, 10-fold excess TW1, for over a month) and “substantially delayed or not observed at all” at Aβ42 [7] (1:1 concentration ratio). On Aβ42 [8], the “inhibition of β-sheet formation by Aβ42 under agitation” value is reported as “efficient inhibition; also recorded: completely inhibited”. Also, on calcitonin, the “inhibition of calcitonin fibrillogenesis” value is “inhibited the fibrillogenesis; also recorded: inhibited the aggregation”. The “conversion of Aβ42 to typical amyloid fibrils (EM)” value at Aβ42 [9] is “delayed substantially”. For the same compound, the IC50 in data set [10] (Rattus norvegicus, PC-12, 48 h, read-out: IC50, inhibition of Aβ40-induced toxicity) amounted to 7 µM; in [12] (Rattus norvegicus, 10 μM Aβ42, tweezers 0.1-100 μM, PC-12 differentiated 48 hours, read-out: IC50, inhibition of Aβ42-induced toxicity), 60 µM. Also, the “inhibition of Aβ40-induced toxicity (in words)” value in data set [10] (tweezers 0.1-100 μM, dose-dependence experiment) is “inhibit Aβ-induced toxicity dose-dependently”. Moreover, the “rescue of Aβ42-induced reduction of mEPSC frequency” value in data set [11] is given as “rescued to baseline level; also recorded: rescues the toxic effect of Aβ42 to baseline level”. For the same compound, in data set [12] (10 μM Aβ42, tweezers 0.1-100 μM, dose-dependence experiment), the “inhibition of Aβ42-induced toxicity (in words)” value is recorded as “inhibit Aβ-induced toxicity dose-dependently”. In data set [12] (from IC50 values), the “times more TW1 required to inhibit Aβ42 than Aβ40 toxicity” value is 9-10 times. On insulin, the “inhibition of insulin fibrillogenesis” value is recorded as “inhibited the fibrillogenesis; also recorded: inhibited the aggregation”.

For orientation: IC50 means the concentration at which inhibition is half-maximal.
